In general, IC50 refers to the concentration that gives 50% inhibition. The low end stands for higher potency, the high end for lower potency.

For one assay, the target named is T1, GRK2 (Homo sapiens, UniProt P25098).
T1 sequence (P25098 1-689): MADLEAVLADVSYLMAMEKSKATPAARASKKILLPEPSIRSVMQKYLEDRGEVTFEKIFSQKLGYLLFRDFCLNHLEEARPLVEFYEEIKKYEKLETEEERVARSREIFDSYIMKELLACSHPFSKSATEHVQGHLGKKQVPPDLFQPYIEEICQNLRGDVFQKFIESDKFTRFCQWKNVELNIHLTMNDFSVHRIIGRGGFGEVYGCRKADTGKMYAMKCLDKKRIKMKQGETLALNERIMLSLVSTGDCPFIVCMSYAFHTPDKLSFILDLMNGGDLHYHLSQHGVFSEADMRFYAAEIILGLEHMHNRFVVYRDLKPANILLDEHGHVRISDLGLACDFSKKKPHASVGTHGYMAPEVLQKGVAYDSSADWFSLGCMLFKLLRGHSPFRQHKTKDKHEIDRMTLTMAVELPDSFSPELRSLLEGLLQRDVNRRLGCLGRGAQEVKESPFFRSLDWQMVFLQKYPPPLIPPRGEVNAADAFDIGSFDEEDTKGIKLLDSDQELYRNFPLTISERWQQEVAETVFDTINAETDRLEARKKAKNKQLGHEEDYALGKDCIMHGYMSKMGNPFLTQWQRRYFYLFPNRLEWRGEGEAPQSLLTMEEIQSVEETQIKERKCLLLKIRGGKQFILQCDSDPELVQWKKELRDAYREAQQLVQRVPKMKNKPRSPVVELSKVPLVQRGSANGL
Description: western blot CETSA, isothermal dose-response at […] °C. The assay is classed as biochemical. On the technique in general: A western blot detects proteins with antibodies after separation by electrophoresis.

A further assay has as its target PIP4K2C (Homo sapiens, UniProt Q8TBX8). Description: NanoBRET target engagement in living HEK293 cells. The format is cell-based.
Another assay concerns the target T2, AURKA (Homo sapiens, UniProt O14965).
T2 sequence (O14965 1-403): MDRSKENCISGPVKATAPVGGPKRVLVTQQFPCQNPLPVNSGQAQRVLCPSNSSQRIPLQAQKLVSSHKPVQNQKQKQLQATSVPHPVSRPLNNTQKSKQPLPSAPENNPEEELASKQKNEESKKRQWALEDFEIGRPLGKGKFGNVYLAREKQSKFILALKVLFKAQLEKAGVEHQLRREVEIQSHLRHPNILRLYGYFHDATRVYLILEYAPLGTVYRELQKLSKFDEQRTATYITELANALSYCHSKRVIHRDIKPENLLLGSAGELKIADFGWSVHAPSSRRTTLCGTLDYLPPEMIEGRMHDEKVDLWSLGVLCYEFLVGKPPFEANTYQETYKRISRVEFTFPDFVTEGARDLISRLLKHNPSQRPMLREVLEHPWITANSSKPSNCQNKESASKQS
Description: single-temperature TPP with PRM-MS in K562 lysate. The format is cell-based.

Chain of PIP4K2C (Q8TBX8 2-421): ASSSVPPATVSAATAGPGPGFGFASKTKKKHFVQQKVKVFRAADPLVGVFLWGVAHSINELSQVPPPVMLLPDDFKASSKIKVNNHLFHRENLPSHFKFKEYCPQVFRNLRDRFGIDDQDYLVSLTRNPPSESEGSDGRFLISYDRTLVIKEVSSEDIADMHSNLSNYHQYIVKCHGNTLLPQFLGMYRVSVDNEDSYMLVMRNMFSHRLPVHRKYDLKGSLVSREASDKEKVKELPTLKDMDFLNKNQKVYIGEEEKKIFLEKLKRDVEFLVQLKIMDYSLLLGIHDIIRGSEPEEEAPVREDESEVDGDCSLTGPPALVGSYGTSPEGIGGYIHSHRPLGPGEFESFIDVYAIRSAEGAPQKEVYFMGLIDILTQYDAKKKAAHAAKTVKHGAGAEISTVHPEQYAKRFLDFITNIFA

As for `Cc1nc2ccc(CN(C)c3ccc(C(=O)N[C@@H](CCC(=O)O)C(=O)O)s3)cc2c(=O)[nH]1` [raltitrexed], it took 6.7 µM to reach half-maximal inhibition on GRK2 (IC50).

With `NC(=O)c1nc(Nc2ccccc2)sc1NC(=O)C1CCCCC1` [UNC3230], on PIP4K2C, the IC50 came to 0.25 µM. In the case of `COc1cc(Nc2ncc3c(n2)-c2ccc(Cl)cc2C(c2c(F)cccc2OC)=NC3)ccc1C(=O)O` [alisertib], on AURKA, the “single-temperature TPP with PRM-MS in K562 lysate” value is “PRM data confirmed that all of these targets exhibit significantly higher abundance in the drug treatment groups”.

The values above are taken from publication PMC10882491 (Chemical Science, 2024).
